According to patent publication US8633226B2, “Piperidinyl derivative as a modulator of chemokine receptor activity” (Bristol-Myers Squibb Company, priority 2008, dated 2014):
Like-named read-outs stand apart in the source and are kept apart here.

Assays:
[1] = Electrocardiography in anesthetized rabbits; assay type: in vivo; conditions: male, blood, anesthetized rabbit, iv
Method: (§1) A dose-response study of test compound was conducted in anesthetized rabbits to assess the cardiac electrophysiologic profile established in the cellular ion channel assays.
(§2) Experiments were performed in propofol-fentanyl anesthetized closed-chest male rabbits. A body surface electrocardiogram (ECG) and an intra-cardiac His-bundle electrogram were continuously monitored and recorded during the studies, using a PoNeMah system and a Prucka electrophysiological recording system, respectively. Test compound was prepared on the day of study in a vehicle of PEG400:ethanol:water (1:1:1) at a dosing concentration of 30 mg/mL. Test compound (n=3) or vehicle (n=3) was given intravenously over 5 minutes via an infusion pump at incremental doses of 3, 10 and 30 mg/kg. The interval between doses was 10 minutes, allowing for a 5-minute test agent infusion and a 5-minute rest period. Blood was sampled at baseline (pre-drug infusion) and immediately at the end of each infusion. For the 30 mg/kg dose, additional blood samples were taken at 10, 20 and 30 minutes after the end of infusion.
(§3) PR interval, QRS duration and QT interval were averaged from a 1 minute ECG recording period at time of blood sampling. QT interval was corrected for heart rate effects using both Fridericia (QTcf) and Van der Water (QTcv) formulae. AH and HV intervals, representing A-V node conduction and His-Purkinje conduction, respectively, were assessed by manual measurements from the His-bundle electrogram. Data were expressed as percent change from pre-drug baseline (mean±SEM) for PR, QRS, AH and HV intervals as well as delta change from the pre-drug infusion baseline (mean±SEM) for QTc intervals. Changes of ≧10% in PR, QRS, and AH intervals, and 20% in HV interval, as well as >10 ms in QTc interval are considered significant based on experience with the model.

anesthetized rabbits = assay: Electrocardiography in anesthetized rabbits; assay type: in vivo; conditions: anesthetized rabbit
Method: as §1, §2, §3

Protein binding, rabbit = assay type: in vitro ADME
[2] = target: human cardiac L-type Ca channel (α1C) and its β subunit (Homo sapiens (Human), UniProt Q13936); assay: L-type calcium channel whole-cell patch-clamp assay; assay type: cell-based; conditions: 30 μM, HEK-293 cells, protein-free buffer
Method: In addition to the potential for interaction with the L-type calcium channel, whole-cell patch-clamp was used to directly measure inward calcium currents in HEK-293 cells stably expressing the cloned human cardiac L-type Ca channel (α1C) and its β subunit. Effects of compounds were calculated by measuring inhibition of peak current. Experiments were carried out using an aqueous buffer at pH 7.4 and at room temperature. There is no protein in the buffer and drug concentrations reported are nominal free drug levels.

Protein binding, human = assay type: in vitro ADME
hERG = hERG (Homo sapiens (Human), UniProt Q12809); assay: hERG patch clamp assay; assay type: cell-based; conditions: HEK-293 cells stably expressing hERG, pH 7.4, protein-free buffer, read-out: hERG, % inh @ 30 μM
Method: Whole-cell patch-clamp was used to directly measure hERG tail currents in HEK-293 cells stably expressing the cloned hERG potassium channel α subunit. Effects of compounds were calculated by measuring inhibition of peak tail current. Experiments were carried out using an aqueous buffer with pH 7.4 at room temperature. There was no protein in the assay buffer. The test concentrations reported are nominal free drug levels.

hERG, sequence (Q12809 whole entry): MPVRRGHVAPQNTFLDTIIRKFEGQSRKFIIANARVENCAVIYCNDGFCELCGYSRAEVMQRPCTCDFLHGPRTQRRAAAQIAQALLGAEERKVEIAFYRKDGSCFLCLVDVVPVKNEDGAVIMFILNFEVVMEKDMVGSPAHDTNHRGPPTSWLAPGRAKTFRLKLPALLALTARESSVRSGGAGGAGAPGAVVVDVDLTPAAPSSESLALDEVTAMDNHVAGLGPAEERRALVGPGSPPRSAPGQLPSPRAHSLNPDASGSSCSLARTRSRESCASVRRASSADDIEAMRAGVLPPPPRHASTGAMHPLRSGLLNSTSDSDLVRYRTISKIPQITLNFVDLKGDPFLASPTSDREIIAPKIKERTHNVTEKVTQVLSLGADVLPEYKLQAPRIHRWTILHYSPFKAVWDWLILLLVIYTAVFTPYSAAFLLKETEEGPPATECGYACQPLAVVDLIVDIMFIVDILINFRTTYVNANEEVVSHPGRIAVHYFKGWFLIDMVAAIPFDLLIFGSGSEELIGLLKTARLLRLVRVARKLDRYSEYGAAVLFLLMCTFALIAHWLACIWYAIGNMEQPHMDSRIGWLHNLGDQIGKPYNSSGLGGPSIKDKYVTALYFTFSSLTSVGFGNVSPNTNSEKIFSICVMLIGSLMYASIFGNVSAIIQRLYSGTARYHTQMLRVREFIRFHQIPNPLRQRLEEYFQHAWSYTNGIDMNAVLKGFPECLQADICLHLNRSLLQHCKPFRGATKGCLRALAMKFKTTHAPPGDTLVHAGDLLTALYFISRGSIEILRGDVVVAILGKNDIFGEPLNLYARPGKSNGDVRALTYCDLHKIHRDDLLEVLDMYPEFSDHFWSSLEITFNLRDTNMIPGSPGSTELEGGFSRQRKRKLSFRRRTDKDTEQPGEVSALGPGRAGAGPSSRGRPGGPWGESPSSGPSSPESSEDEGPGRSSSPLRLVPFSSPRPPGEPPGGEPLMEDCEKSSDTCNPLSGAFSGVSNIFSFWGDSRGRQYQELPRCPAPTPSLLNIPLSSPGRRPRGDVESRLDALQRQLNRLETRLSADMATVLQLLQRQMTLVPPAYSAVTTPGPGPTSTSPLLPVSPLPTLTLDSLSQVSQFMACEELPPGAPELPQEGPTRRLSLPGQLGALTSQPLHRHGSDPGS
human cardiac L-type Ca channel (α1C) and its β subunit, sequence (Q13936 whole entry): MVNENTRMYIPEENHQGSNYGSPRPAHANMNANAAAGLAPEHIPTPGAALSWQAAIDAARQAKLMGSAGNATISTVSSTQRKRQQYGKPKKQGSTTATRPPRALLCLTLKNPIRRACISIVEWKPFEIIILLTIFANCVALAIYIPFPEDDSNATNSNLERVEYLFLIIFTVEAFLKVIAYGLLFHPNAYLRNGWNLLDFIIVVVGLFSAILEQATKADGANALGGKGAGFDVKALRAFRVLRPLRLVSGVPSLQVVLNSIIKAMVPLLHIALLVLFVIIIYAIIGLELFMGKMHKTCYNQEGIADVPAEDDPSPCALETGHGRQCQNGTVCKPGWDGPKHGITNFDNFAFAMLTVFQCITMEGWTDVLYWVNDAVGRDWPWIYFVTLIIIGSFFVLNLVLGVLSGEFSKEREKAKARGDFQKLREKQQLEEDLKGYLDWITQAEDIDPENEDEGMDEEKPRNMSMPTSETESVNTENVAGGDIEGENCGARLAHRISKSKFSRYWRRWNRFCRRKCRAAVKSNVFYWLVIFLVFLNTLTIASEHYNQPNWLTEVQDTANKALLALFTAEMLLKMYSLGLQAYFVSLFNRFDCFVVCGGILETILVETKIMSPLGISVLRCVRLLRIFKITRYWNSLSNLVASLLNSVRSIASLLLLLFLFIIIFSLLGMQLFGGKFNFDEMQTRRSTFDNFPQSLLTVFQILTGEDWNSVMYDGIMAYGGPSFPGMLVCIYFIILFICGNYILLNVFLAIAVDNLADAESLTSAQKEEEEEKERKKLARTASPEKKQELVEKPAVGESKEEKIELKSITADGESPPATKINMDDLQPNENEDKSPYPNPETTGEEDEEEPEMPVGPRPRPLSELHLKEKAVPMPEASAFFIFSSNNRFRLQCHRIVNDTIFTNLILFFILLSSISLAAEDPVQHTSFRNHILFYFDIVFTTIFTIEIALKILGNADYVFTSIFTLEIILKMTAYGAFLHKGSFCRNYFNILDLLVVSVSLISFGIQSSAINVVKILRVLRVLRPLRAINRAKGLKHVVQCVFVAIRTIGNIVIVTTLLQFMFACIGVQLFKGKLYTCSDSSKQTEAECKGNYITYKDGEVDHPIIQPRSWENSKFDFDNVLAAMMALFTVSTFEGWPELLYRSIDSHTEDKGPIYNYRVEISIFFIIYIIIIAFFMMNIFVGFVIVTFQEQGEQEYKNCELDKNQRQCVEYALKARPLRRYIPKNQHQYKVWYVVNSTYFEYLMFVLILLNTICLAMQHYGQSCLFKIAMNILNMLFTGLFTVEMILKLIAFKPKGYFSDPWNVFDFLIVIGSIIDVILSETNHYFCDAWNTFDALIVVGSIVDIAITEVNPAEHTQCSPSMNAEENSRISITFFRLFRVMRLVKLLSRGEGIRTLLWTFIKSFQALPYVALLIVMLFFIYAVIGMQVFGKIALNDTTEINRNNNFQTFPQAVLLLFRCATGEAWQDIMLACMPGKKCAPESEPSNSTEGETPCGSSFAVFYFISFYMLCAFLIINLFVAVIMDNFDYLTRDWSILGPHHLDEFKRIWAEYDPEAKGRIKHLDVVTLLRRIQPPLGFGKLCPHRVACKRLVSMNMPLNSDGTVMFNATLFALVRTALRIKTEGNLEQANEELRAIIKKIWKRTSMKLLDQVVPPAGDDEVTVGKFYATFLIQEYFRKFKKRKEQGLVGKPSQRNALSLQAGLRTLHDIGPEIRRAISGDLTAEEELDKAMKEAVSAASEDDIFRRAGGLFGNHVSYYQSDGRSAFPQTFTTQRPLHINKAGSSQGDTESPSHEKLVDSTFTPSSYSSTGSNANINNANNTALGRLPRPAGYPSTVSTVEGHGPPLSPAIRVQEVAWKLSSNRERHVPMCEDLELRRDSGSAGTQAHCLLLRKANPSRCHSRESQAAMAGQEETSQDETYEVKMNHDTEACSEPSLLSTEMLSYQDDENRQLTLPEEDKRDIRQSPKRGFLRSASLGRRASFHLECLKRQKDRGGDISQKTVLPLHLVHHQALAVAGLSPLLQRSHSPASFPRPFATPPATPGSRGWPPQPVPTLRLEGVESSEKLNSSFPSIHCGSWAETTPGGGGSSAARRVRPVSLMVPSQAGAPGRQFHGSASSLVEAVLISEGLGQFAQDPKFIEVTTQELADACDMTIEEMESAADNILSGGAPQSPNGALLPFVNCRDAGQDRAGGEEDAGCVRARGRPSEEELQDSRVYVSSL
human cardiac L-type Ca channel (α1C) and its β subunit, sequence (Q08289 whole entry partner): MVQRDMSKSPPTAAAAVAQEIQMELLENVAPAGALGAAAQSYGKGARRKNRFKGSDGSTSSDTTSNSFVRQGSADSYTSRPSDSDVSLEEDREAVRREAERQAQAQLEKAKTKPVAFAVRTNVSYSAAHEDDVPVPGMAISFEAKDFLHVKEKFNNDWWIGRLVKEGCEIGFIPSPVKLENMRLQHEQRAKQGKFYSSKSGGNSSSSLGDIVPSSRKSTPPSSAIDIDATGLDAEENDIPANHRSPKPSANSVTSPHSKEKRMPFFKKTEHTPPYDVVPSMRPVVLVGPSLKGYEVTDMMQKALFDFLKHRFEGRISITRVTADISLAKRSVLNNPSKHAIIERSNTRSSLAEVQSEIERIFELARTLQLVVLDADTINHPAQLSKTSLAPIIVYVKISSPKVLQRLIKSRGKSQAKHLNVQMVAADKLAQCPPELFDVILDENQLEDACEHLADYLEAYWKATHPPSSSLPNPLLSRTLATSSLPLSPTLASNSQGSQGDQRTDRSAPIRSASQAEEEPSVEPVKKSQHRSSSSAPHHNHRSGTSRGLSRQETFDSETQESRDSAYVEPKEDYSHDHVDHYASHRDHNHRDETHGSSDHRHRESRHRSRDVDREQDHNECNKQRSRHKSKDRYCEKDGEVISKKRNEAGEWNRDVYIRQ

In the case of `CC(C)[C@@H](NC(=O)NCC(C)(C)O)C(=O)N1CC[C@](O)(c2ccc(Cl)cc2)C(C)(C)C1` [Compound I], the Cmax ([1]; 30 mg/kg, read-out: Cmax: Total drug at QT effect dose) is reported as 202 µM, the Cmax ([1]; NOEL dose 10 mg/kg, read-out: Cmax: Total drug at NOEL dose) is reported as 65.2 µM and the “NOEL dose (No Observed Effect Level)” value (anesthetized rabbits; iv infusion) is reported as 10 mg/kg. For the same molecule, the “QT effect Dose” value (anesthetized rabbits; iv infusion) was 30 mg/kg, the “QTcf, delta” value (anesthetized rabbits; iv infusion, at QT effect dose 30 mg/kg) was 12 ms and the “Cmax: Free drug at QT effect dose” value (anesthetized rabbits; iv, 30 mg/kg) was 26 µM. The “Cmax: Free drug at NOEL dose” value (anesthetized rabbits; iv, NOEL dose 10 mg/kg) was 8.5 µM, the fraction unbound (Protein binding, rabbit) was 0.13 and the “Ca, % inh” value [2] was 29% @ 30 μM. For the same molecule, the fraction unbound (Protein binding, human) was 0.19 and the inhibition at 30 µM (hERG) was 29%.
